Results: PMC4807618 (Angewandte Chemie (International ed. in English), 2016)

Key:
[1] = system: NA activity of oseltamivir-susceptible (wild-type) H1N1 influenza virus A/Brisbane/59/2007; assay type: biochemical
[2] = system: NA activity of oseltamivir-susceptible (wild-type) H1N1 influenza virus A/Netherlands/049/2008; assay type: biochemical

Compound: CCN[C@H]1C[C@H](C)S(=O)(=O)c2sc(S(N)(=O)=O)cc21 [Dorzolamide, dorzolamide]
- effect on NA activity [1]: no effect
- effect on NA activity [2]: no effect

Compound: CCn1cc(C(=O)O)c(=O)c2ccc(C)nc21 [Nalidixic acid, nalidixic acid]
- effect on NA activity [1]: no effect
- effect on NA activity [2]: no effect
